Results from patent publication US6426229B1, “Chelating agent and detergent comprising the same” (Mitsubishi Rayon Co., Ltd., priority 1995, dated 2002).

Assay: Storage of aqueous solution or slurry for 60 days: HPLC analysis of components and appearance
Type: physicochemical
Conditions: keeping temperature 40° C.

SMILES	Appearance after kept for 60 days	Content of the compound of the formula [I] in aqueous solution after kept for 60 days [wt. %]
O=C([O-])CN(CC(=O)[O-])c1ccccc1C(=O)[O-].[Fe+3] [Example 110, iron salt of anthranilic acid-N,N-diacetic acid]	Reddish brown aqueous solution	49.3
O=C([O-])CN(CC(=O)[O-])c1ccccc1C(=O)[O-].[Fe+3] [Example 111, iron salt of anthranilic acid-N,N-diacetic acid]	Reddish brown aqueous solution	39.8
O=C([O-])CC(NCCNC(CC(=O)[O-])C(=O)[O-])C(=O)[O-].[Na+].[Na+].[Na+].[Na+] (stereo not drawn) [Example 122, tetrasodium ethylenediamine-N,N′-disuccinate]	White slurry	74.1
O=C([O-])CC(NCCCNC(CC(=O)[O-])C(=O)[O-])C(=O)[O-].[Na+].[Na+].[Na+].[Na+] (stereo not drawn) [Example 123, tetrasodium 1,3-propanediamine-N,N′-disuccinate]	White slurry	74.1

Same assay, conditions: keeping temperature 60° C.

SMILES	Appearance after kept for 60 days	Content of the compound of the formula [I] in aqueous solution after kept for 60 days [wt. %]
O=C([O-])CN[C@@H](CC(=O)[O-])C(=O)[O-].[Na+].[Na+].[Na+] [compound 35, trisodium salt of (S)-aspartic acid-N-monoacetic acid, reference compound]	Brown slurry	47.3
O=C([O-])C[C@@H](C(=O)[O-])N(CC(=O)[O-])CC(=O)[O-].[Na+].[Na+].[Na+].[Na+] [compound 36, tetrasodium salt of (S)-aspartic acid-N,N-diacetic acid, reference compound]	Brown slurry	48.3

Same assay, conditions: keeping temperature 65° C.

SMILES	Appearance after kept for 60 days	Content of the compound of the formula [I] in aqueous solution after kept for 60 days [wt. %]
O=C([O-])CN[C@@H](CC(=O)[O-])C(=O)[O-].[Na+].[Na+].[Na+] [Example 93, trisodium salt of (S)-aspartic acid-N-monoacetic acid]	Light yellow slurry	63.7
O=C([O-])C[C@@H](C(=O)[O-])N(CC(=O)[O-])CC(=O)[O-].[Na+].[Na+].[Na+].[Na+] [Example 94, tetrasodium salt of (S)-aspartic acid-N,N-diacetic acid]	Light yellow slurry	64.5
O=C([O-])CCN[C@@H](CC(=O)[O-])C(=O)[O-].[Na+].[Na+].[Na+] [Example 95, trisodium salt of (S)-aspartic acid-N-monopropionic acid]	Light yellow slurry	65.4
C[C@@H](C(=O)[O-])N(CC(=O)[O-])CC(=O)[O-].[Na+].[Na+].[Na+] [Example 96, trisodium salt of (S)-α-alanine-N,N-diacetic acid]	Light yellow slurry	64.7
O=C([O-])CN(CCS(=O)(=O)[O-])CC(=O)[O-].[Na+].[Na+].[Na+] [Example 106, trisodium salt of taurine-N,N-diacetic acid]	Light yellow slurry	63.7
CN(CC(=O)[O-])CC(=O)[O-].[Na+].[Na+] [Example 107, disodium N-methyliminodiacetate]	Light yellow slurry	64.5
O=C([O-])C[C@H](NCCN[C@@H](CC(=O)[O-])C(=O)[O-])C(=O)[O-].[Na+].[Na+].[Na+].[Na+] [Example 118, tetrasodium (S,S)-ethylenediamine-N,N′-disuccinate]	Light yellow slurry	65.4
O=C([O-])CC(NCCCNC(CC(=O)[O-])C(=O)[O-])C(=O)[O-].[Na+].[Na+].[Na+].[Na+] (stereo not drawn) [Example 119, tetrasodium 1,3-propanediamine-N,N′-disuccinate]	Light yellow slurry	65.4

Same assay, conditions: keeping temperature 70° C.

SMILES	Appearance after kept for 60 days	Content of the compound of the formula [I] in aqueous solution after kept for 60 days [wt. %]
O=C([O-])CN[C@@H](CC(=O)[O-])C(=O)[O-].[Na+].[Na+].[Na+] [Example 97, trisodium salt of (S)-aspartic acid-N-monoacetic acid]	White slurry	76.8
O=C([O-])C[C@@H](C(=O)[O-])N(CC(=O)[O-])CC(=O)[O-].[Na+].[Na+].[Na+].[Na+] [Example 98, tetrasodium salt of (S)-aspartic acid-N,N-diacetic acid]	White slurry	78.5
O=C([O-])CCN[C@@H](CC(=O)[O-])C(=O)[O-].[Na+].[Na+].[Na+] [Example 99, trisodium salt of (S)-aspartic acid-N-monopropionic acid]	White slurry	79.4
O=C([O-])CN(CCS(=O)(=O)[O-])CC(=O)[O-].[Na+].[Na+].[Na+] [Example 108, trisodium salt of taurine-N,N-diacetic acid]	White slurry	76.9
CN(CC(=O)[O-])CC(=O)[O-].[Na+].[Na+] [Example 109, disodium N-methyliminodiacetate]	White slurry	78.5
O=C([O-])C[C@H](NCCCN[C@@H](CC(=O)[O-])C(=O)[O-])C(=O)[O-].[Na+].[Na+].[Na+].[Na+] [Example 120, tetrasodium (S,S)-1,3-propanediamine-N,N′-disuccinate]	White slurry	78.4
O=C([O-])C[C@H](NCC(O)CN[C@@H](CC(=O)[O-])C(=O)[O-])C(=O)[O-].[Na+].[Na+].[Na+].[Na+] [Example 121, tetrasodium (S,S)-2-hydroxy-1,3-propanediamine-N,N′-disuccinate]	White slurry	78.7

Same assay, conditions: keeping temperature 75° C.

SMILES	Appearance after kept for 60 days	Content of the compound of the formula [I] in aqueous solution after kept for 60 days [wt. %]
C[C@@H](C(=O)[O-])N(CC(=O)[O-])CC(=O)[O-].[Na+].[Na+].[Na+] [Example 92, trisodium salt of (S)-α-alanine-N,N-diacetic acid]	Colorless transparent aqueous solution	49.8
O=C([O-])CN(CCS(=O)(=O)[O-])CC(=O)[O-].[Na+].[Na+].[Na+] [Example 103, trisodium salt of taurine-N,N-diacetic acid]	Colorless transparent aqueous solution	49.4
CN(CC(=O)[O-])CC(=O)[O-].[Na+].[Na+] [Example 104, disodium N-methyliminodiacetate]	Colorless transparent aqueous solution	–
O=C([O-])CN(CC(=O)[O-])c1ccccc1C(=O)[O-].[Na+].[Na+].[Na+] [Example 105, trisodium salt of anthranilic acid-N,N-diacetic acid]	Colorless transparent aqueous solution	49.8
O=C([O-])C[C@H](NCCCN[C@@H](CC(=O)[O-])C(=O)[O-])C(=O)[O-].[Na+].[Na+].[Na+].[Na+] [Example 115, tetrasodium (S,S)-1,3-propanediamine-N,N′-disuccinate]	Colorless transparent aqueous solution	44.3
O=C([O-])C[C@H](NCC(O)CN[C@@H](CC(=O)[O-])C(=O)[O-])C(=O)[O-].[Na+].[Na+].[Na+].[Na+] [Example 116, tetrasodium (S,S)-2-hydroxy-1,3-propanediamine-N,N′-disuccinate]	Colorless transparent aqueous solution	44.7
O=C([O-])CC(NCCNC(CC(=O)[O-])C(=O)[O-])C(=O)[O-].[Na+].[Na+].[Na+].[Na+] (stereo not drawn) [Example 117, tetrasodium ethylenediamine-N,N′-disuccinate]	Colorless transparent aqueous solution	49.8
O=C([O-])CC(NCCCNC(CC(=O)[O-])C(=O)[O-])C(=O)[O-].[Na+].[Na+].[Ni+2] [Example 127, nickel disodium (S,S)-1,3-propanediamine-N,N′-disuccinate]	Blue transparent aqueous solution	44.0
O=C([O-])C[C@H](NCC(O)CN[C@@H](CC(=O)[O-])C(=O)[O-])C(=O)[O-].[Cu+2].[Na+].[Na+] [Example 128, copper disodium (S,S)-2-hydroxy-1,3-propanediamine-N,N′-disuccinate]	Dark blue transparent aqueous solution	47.9
O=C([O-])CN[C@@H](CC(=O)[O-])C(=O)[O-].[Na+].[Na+].[Na+] [compound 34, trisodium salt of (S)-aspartic acid-N-monoacetic acid, reference compound]	Brown aquequs solution	30.6
CN(CC(=O)[O-])CC(=O)[O-].[Na+].[Na+] [compound 41, disodium N-methyliminodiacetate, reference compound]	Light yellow transparent aqueous solution	29.6
